Experimental data as given in paper PMC6278366, “Synthesis and Evaluation of Anticancer Activities of Novel C-28 Guanidine-Functionalized Triterpene Acid Derivatives” (Molecules, 2018).
Counter-ions that a name gives are not always drawn. Like-named read-outs stand apart in the source and are kept apart here.

Key:
[1] = system: U937 (histiocytic lymphoma) cells; assay: Cytotoxicity assay (7-AAD viability, flow cytometry), U937; format: cell-based, human
Experimental: (§1) Cells (Jurkat, K562, U937, HeLa, HEK293 and normal Fibroblasts) were purchased from Russian Cell Culture Collection (Institute of Cytology of the Russian Academy of Sciences, Saint Petersburg, Russia) and cultured according to standard mammalian tissue culture protocols and sterile technique. Human cell lines HEK293 and HeLa were obtained from the HPA Culture Collections (Salisbury, UK). All cell lines used in the study were tested and shown to be free of mycoplasma and viral contamination.
(§2) Cells were maintained in RPMI 1640 (Jurkat, K562, U937) (Gibco, Thermo Fisher Scientific, Waltham, MA, USA) supplemented with 4 mM glutamine, 10% FBS (Sigma, Burlington, MA, USA) and 100 units/mL penicillin-streptomycin (Sigma). All types of cells were grown in an atmosphere of 5% CO2 at 37 °C. The cells were subcultures at 2–3 days intervals. Adherent cells (HEK293, HeLa, fibroblasts) were suspended using trypsin/EDTA and counted after they have reached 80% confluency. Cells were then seeded in 24 well plates at 5 × 10^4 cells per well and incubated overnight. Jurkat, K562, U937 cells were subcultured at 2 day intervals with a seeding density of 1 × 10^5 cells per 24 well plates in RPMI with 10% FBS.
(§3) Viability (Live/dead) assessment was performed by staining cells with 7-AAD (7-Aminoactinomycin D) (Biolegend, San Diego, CA, USA). Cells were treated of test compounds with six different concentrations (1, 5, 10, 15, 30 and 60 μM). After treatment, cells were harvested, washed 1–2 times with phosphate-buffered saline (PBS) and centrifuged at 400× g for 5 min. Cell pellets were resuspended in 200 μL of flow cytometry staining buffer (PBS without Ca^2+ and Mg^2+, 2.5% FBS) and stained with 5 μL of 7-AAD staining solutionfor 15 min at room temperature in the dark. Samples were acquired on NovoCyteTM 2000 FlowCytometry System (ACEA, San Diego, CA, USA) equipped with 488 nm argon laser. Detection of 7-AAD emission was collected through a 675/30 nm filter in FL4 channel.

[2] = system: HeLa (cervical cancer) cells; assay: Cytotoxicity assay (7-AAD viability, flow cytometry), HeLa; format: cell-based, human; conditions: mean ± SE, at least three experiments in duplicate, viable cells
Experimental: as §1
(§4) HEK293, HeLa cell lines and fibroblasts were cultured as monolayers and maintained in Dulbecco’s modified Eagle’s medium (DMEM, Gibco BRL, Waltham, MA, USA) supplemented with 10% foetal bovine serum and 1% penicillin-streptomycin solution at 37 °C in a humidified incubator under a 5% CO2 atmosphere.
as §2, §3

[3] = system: K562 (chronic myeloid leukemia) cells; assay: Cytotoxicity assay (7-AAD viability, flow cytometry), K562; format: cell-based, human; conditions: viable cells
Experimental: as §1, §2, §3

[4] = system: HEK293 (embryonic kidney) cells; assay: Cytotoxicity assay (7-AAD viability, flow cytometry), HEK293; format: cell-based, human; conditions: at least three experiments in duplicate, viable cells
Experimental: as §1, §4, §2, §3

normal human fibroblasts = assay: Cytotoxicity assay (7-AAD viability, flow cytometry), normal fibroblasts; format: cell-based; conditions: mean ± SE, at least three experiments in duplicate
Experimental: as §1, §4, §2
as §3, with “Cells were treated of test compounds with six different concentrations (1, 5, 10, 15, 30 and 60 μM).” left out

[5] = system: Jurkat (T-lymphoblastic leukemia) cells; assay: cells; format: cell-based; conditions: for IC50: viable cells; for SI (selectivity towards Jurkat cells): SI = IC50 fibroblasts/IC50 Jurkat cells
Experimental: as §1, §2, §3

[6] = read-out: IC50 U937; mean ± SE, at least three experiments in duplicate; viable cells
[7] = Homo sapiens, HEK293, mean ± SE
[8] = Homo sapiens, Jurkat, mean ± SE, at least three experiments in duplicate, read-out: IC50 Jurkat
[9] = Homo sapiens, U-937, mean ± SE, at least three experiments in duplicate; viable cells; read-out: IC50 U937
[10] = Homo sapiens, K562, mean ± SE, at least three experiments in duplicate, read-out: IC50 K562

| Compound | IC50 [1, 6] | IC50 ([2]; Homo sapiens, HeLa) | IC50 ([3]; Homo sapiens, K562, read-out: IC50 K562, mean ± SE, at least three experiments in duplicate) | IC50 [4, 7] | IC50 (normal human fibroblasts; Homo sapiens, Fibroblast) | IC50 ([5]; Homo sapiens, Jurkat, read-out: IC50 Jurkat, mean ± SE, at least three experiments in duplicate) | IC50 [2] | IC50 ([3]; read-out: IC50 K562, mean ± SE, at least three experiments in duplicate) | IC50 ([4]; mean ± SE) | IC50 (normal human fibroblasts) | IC50 ([5]; read-out: IC50 Jurkat, mean ± SE, at least three experiments in duplicate) | IC50 ([1]; mean ± SE, at least three experiments in duplicate; viable cells; read-out: IC50 U937) | IC50 ([3]; mean ± SE, at least three experiments in duplicate, read-out: IC50 K562) | IC50 [5, 8] | IC50 [1, 9] | IC50 [3, 10] | increase in cytotoxic activity against Jurkat cells in comparison with dihydrobetulinic acid 2 [5] | SI (selectivity towards Jurkat cells) [5] |
| --- | --- | --- | --- | --- | --- | --- | --- | --- | --- | --- | --- | --- | --- | --- | --- | --- | --- | --- |
| CC(=O)O[C@H]1CC[C@@]2(C)C(CC[C@]3(C)C2CCC2C4C(C(C)C)CC[C@]4(C(=O)NCCN(CCNC(=N)N)CCNC(=N)N)CC[C@]23C)C1(C)C (single isomer, unassigned) [Compound 12a, 3β-N-[2-(N,N′-bis-Ethylgyanidine)-aminoethyl]-3-O-acetyl-lupane-28-amide trifluoroacetate] | 28 ± 0.25 µM | 101 ± 0.22 µM | 89 ± 0.18 µM | 112 ± 0.19 µM | 149 ± 0.43 µM | 22 ± 0.21 µM |  |  |  |  |  |  |  |  |  |  |  |  |
| CC(=O)O[C@H]1CC[C@@]2(C)C(CC[C@]3(C)C2CCC2C4C(C(C)C)CC[C@]4(C(=O)NCCN(CCNC(=N)N)CCNC(=N)N)CC[C@]23C)C1(C)C (single isomer, unassigned) [Compound 12b, 3β-N-[2-(N,N′-bis-Ethylgyanidine)-aminoethyl]-3-O-acetyl-lupane-28-amide dihydrochloride] | 13 ± 0.06 µM |  |  |  |  |  | 72 ± 0.34 µM | 52 ± 0.26 µM | 68 ± 0.29 µM | 106 ± 0.23 µM | 14 ± 0.37 µM |  |  |  |  |  |  |  |
| CC(=O)O[C@H]1CC[C@@]2(C)C(CC[C@]3(C)C2CC=C2C4[C@@H](C)[C@H](C)CC[C@]4(C(=O)OCC(CO)(CO)NC(=N)N)CC[C@]23C)C1(C)C (single isomer, unassigned) [Compound 18b, 3β-[2-Guanidine-3-hydroxy-2-(hydroxymethyl)propyl]-3-O-acetyl-urs-12-en-28-oate trifluoroacetate] |  | 11 ± 0.27 µM |  | 13 ± 0.19 µM | 47 ± 0.15 µM |  |  |  |  |  |  | 2.1 ± 0.41 µM | 40 ± 0.29 µM | 6.8 ± 0.32 µM |  |  |  |  |
| CC(C)C1CC[C@]2(C(=O)NCCCCNC(=N)N)CC[C@]3(C)C(CCC4[C@@]5(C)CCC(=O)C(C)(C)C5CC[C@]43C)C12 (stereo partly drawn) [Compound 9b, N-(4-Butylgyanidine)-3-oxolupane-28-amide dihydrochloride] |  | 81 ± 0.19 µM |  | 92 ± 0.34 µM | 179 ± 0.43 µM |  |  |  |  |  |  |  |  | 21 ± 0.24 µM | 14 ± 0.16 µM | 57 ± 0.36 µM | approximately 3 fold | 8.5 |
| CC(=O)O[C@H]1CC[C@@]2(C)C(CC[C@]3(C)C2CCC2C4C(C(C)C)CC[C@]4(C(=O)NCCNC(=N)N)CC[C@]23C)C1(C)C (stereo partly drawn) [Compound 10b, 3β-N-(2-Ethylgyanidine)-3-O-acetyl-lupane-28-amide hydrochloride] |  | 152 ± 0.49 µM |  | 128 ± 0.35 µM | 354 ± 0.46 µM |  |  |  |  |  |  |  |  | 67 ± 0.21 µM | 82 ± 0.14 µM | 98 ± 0.35 µM |  |  |
| CC(=O)O[C@H]1CC[C@@]2(C)C(CC[C@]3(C)C2CCC2C4C(C(C)C)CC[C@]4(C(=O)NCCCCNC(=N)N)CC[C@]23C)C1(C)C (stereo partly drawn) [Compound 11b, 3β-N-(4-Butylgyanidine)-3-O-acetyl-lupane-28-amide hydrochloride] |  | 106 ± 0.51 µM |  | 98 ± 0.27 µM | 117 ± 0.38 µM |  |  |  |  |  |  |  |  | 16 ± 0.18 µM | 63 ± 0.29 µM | 55 ± 0.38 µM | approximately 3 fold | 7.3 |
| CC(=O)O[C@H]1CC[C@@]2(C)C(CC[C@]3(C)C2CCC2C4C(C(C)C)CC[C@]4(C(=O)NCCCN4CCN(CCCNC(=N)N)CC4)CC[C@]23C)C1(C)C (stereo partly drawn) [Compound 13a, 3β-N-{[3-(3-Propylguanidine)piperazinyl]propyl}-3-O-acetyl-lupane-28-amide trifluoroacetate] |  | 79 ± 0.29 µM |  | 74 ± 0.15 µM | 104 ± 0.26 µM |  |  |  |  |  |  |  |  | 24 ± 0.27 µM | 18 ± 0.21 µM | 11 ± 0.33 µM |  |  |
| CC(C)C1CC[C@]2(C(=O)NCCCCNC(=N)N)CC[C@]3(C)C(CCC4[C@@]5(C)CC[C@H](O)C(C)(C)C5CC[C@]43C)C12 (stereo partly drawn) [Compound 14, 3β-N-(4-Butylgyanidine)-3-hydroxy-lupane-28-amide] |  | 62 ± 0.24 µM |  | 59 ± 0.21 µM | 96 ± 0.17 µM |  |  |  |  |  |  |  |  | 17 ± 0.34 µM | 20 ± 0.12 µM | 36 ± 0.42 µM | approximately 3 fold | 5.6 |
| CC(=O)O[C@H]1CC[C@@]2(C)C(CC[C@]3(C)C2CC=C2C4CC(C)(C)CC[C@]4(C(=O)OCC(CO)(CO)NC(=N)N)CC[C@]23C)C1(C)C (stereo partly drawn) [Compound 20b, 3β-[2-Guanidine-3-hydroxy-2-(hydroxymethyl)propyl]-3-O-acetyl-olean-12-en-28-oate trifluoroacetate] |  | 13 ± 0.41 µM |  | 12 ± 0.23 µM | 49 ± 0.25 µM |  |  |  |  |  |  |  |  | 6.7 ± 0.15 µM | 6.1 ± 0.43 µM | 20 ± 0.14 µM |  |  |
| CC1(C)CC[C@]2(C(=O)O)CC[C@]3(C)C(=CC[C@@H]4[C@@]5(C)CC[C@H](O)C(C)(C)[C@@H]5CC[C@]43C)[C@@H]2C1 [OA, oleanolic acid, reference compound] |  | 258 ± 0.31 µM |  | 247 ± 0.27 µM | 694 ± 0.17 µM |  |  |  |  |  |  |  |  | 271 ± 0.19 µM | 186 ± 0.18 µM | 235 ± 0.24 µM |  |  |
| C[C@H]1[C@H](C)CC[C@]2(C(=O)O)CC[C@]3(C)C(=CC[C@@H]4[C@@]5(C)CC[C@H](O)C(C)(C)[C@@H]5CC[C@]43C)[C@H]12 [UA, ursolic acid, reference compound] |  | 88 ± 0.35 µM |  | 96 ± 0.22 µM | 324 ± 0.16 µM |  |  |  |  |  |  |  |  | 23 ± 0.34 µM | 17 ± 0.12 µM | 68 ± 0.11 µM |  |  |
